Test results taken from ChEMBL document CHEMBL1124610, “Tyrphostins I: synthesis and biological activity of protein tyrosine kinase inhibitors” (J Med Chem, 1989).

Target: T1, Epidermal growth factor receptor (Homo sapiens, UniProt P00533)
Assay: Inhibition of EGF-dependent epidermal growth factor receptor autophosphorylation (inactive); call rule not given here

T1 sequence (P00533 whole entry): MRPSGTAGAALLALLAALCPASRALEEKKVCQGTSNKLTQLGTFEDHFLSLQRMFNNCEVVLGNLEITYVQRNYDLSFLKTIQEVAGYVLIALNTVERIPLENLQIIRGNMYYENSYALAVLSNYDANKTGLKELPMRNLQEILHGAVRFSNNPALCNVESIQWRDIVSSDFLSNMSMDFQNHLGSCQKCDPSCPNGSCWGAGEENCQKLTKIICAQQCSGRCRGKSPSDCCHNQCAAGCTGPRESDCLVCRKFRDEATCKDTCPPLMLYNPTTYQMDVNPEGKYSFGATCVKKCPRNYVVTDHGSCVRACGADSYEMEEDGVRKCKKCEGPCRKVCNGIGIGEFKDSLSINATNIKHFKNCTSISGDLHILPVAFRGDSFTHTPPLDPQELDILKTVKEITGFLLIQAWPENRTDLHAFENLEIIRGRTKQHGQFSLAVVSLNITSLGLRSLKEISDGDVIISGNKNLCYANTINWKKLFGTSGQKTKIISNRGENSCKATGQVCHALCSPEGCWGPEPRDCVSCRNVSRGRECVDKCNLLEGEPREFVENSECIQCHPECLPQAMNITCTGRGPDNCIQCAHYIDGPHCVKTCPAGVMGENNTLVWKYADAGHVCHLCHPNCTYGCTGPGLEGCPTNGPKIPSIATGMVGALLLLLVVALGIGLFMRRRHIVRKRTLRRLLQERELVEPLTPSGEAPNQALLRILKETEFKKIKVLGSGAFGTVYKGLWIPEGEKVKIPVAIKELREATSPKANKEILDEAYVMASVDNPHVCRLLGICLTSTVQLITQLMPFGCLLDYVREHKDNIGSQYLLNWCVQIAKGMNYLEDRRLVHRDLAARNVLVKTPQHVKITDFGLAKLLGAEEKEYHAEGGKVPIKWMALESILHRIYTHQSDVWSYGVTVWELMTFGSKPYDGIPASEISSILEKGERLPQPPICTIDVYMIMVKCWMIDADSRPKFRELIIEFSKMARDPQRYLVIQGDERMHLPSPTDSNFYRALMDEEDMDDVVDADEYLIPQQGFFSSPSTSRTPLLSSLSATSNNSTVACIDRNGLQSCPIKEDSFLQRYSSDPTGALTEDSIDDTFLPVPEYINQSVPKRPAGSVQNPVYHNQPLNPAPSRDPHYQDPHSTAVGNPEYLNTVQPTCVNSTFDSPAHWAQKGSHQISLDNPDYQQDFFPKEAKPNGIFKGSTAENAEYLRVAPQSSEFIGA

| Structure (SMILES) | IC50 | Ki |
| --- | --- | --- |
| O=[N+]([O-])c1ccc(O)c(O)c1 [4-Nitrocatechol] | Not Active | Not Active |
| O=C(O)c1ccc(O)cc1 [PARABEN] | Not Active | Not Active |

Target: T1, Epidermal growth factor receptor
Assay: (§1) Inhibitory concentration of EGF dependent autophosphorylation of epidermal growth factor receptor kinase

| Structure (SMILES) | IC50 [µM] |
| --- | --- |
| N#CC(C#N)=C(N)/C(C#N)=C/c1ccc(O)c(O)c1 | 2.5 |
| COc1cc(C=C(C#N)C#N)cc(O)c1O | 6 |
| O=C(O)C(=Cc1ccc(O)cc1)C(=O)O | 1500 |
| N#CC(C#N)=Cc1ccc(O)c([N+](=O)[O-])c1 | 125 |
| N#C/C(=C\c1ccc(O)c(O)c1)C(=O)O | 70 |
| N#CC(C#N)Cc1ccc(O)cc1 | 6500 |
| COc1cc(C=C(C#N)C#N)cc(OC)c1 | > 1250 |
| N#CC(C#N)=C(N)/C(C#N)=C/c1ccc(O)c([N+](=O)[O-])c1 | 60 |
| N#CC(C#N)=Cc1ccc(/C=C/C(=O)O)cc1 | 450 |
| N#CC(C#N)=Cc1ccc(O)cc1 | 560 |
| N#CC(C#N)=Cc1cc(O)c(O)c(O)c1 [TYRPHOSTIN 25] | 3 |
| COc1ccc(C(O)=C(C#N)C#N)cc1 | 450 |
| CC(=C(C#N)C#N)c1ccc(N)cc1 | > 1250 |
| N#CC(C#N)=NNc1ccc(O)cc1 | 225 |
| N#C/C(=C\c1ccc(O)c(O)c1)C(N)=O | 10 |
| N#CC(C#N)=C(O)c1cc(O)c(O)c(O)c1 | 13.5 |
| N#CC(C#N)=Cc1ccc(F)cc1 | > 1250 |
| COc1cc(/C=C(\C#N)C(=O)O)cc(OC)c1O | 700 |
| N#CC(C#N)=C1C(=O)NC(=O)NC1=O | 1400 |
| N#CC(C#N)=Cc1ccc([N+](=O)[O-])c(O)c1 | 450 |
| N#CC(C#N)=Cc1cc(O)cc(O)c1 | 37 |

| Structure (SMILES) | IC50 [µM] |
| --- | --- |
| N#CC(C#N)=CNc1ccc(O)cc1 | 350 |
| CC(C)(C)c1cc(C=C(C#N)C#N)cc(C(C)(C)C)c1O [TYRPHOSTIN A9] | 460 |
| N#CCNC(=O)/C(C#N)=C/c1ccc(O)cc1 | 625 |
| N[C@@H](Cc1ccc(O)c(O)c1)C(=O)O [LEVODOPA] | 900 |
| N#CC(C#N)=C(O)c1ccc(O)cc1 | 230 |
| N#CC(C#N)=Cc1ccc[nH]1 | 260 |
| N#CC(C#N)=Cc1cc(O)ccc1[N+](=O)[O-] | 96 |
| N#CC(C#N)=Cc1ccncc1 | 250 |
| COc1ccc(/C=C(\C#N)C(=O)O)cc1 | 2500 |
| O=CN/C=C/c1cc(O)ccc1O [ERBSTATIN] | 14 |
| N#CC(C#N)=C(N)/C(C#N)=C/c1cc(O)c(O)c(Br)c1 | 0.5 |
| COc1cc(C=C(C#N)C#N)cc(OC)c1O | 850 |
| N#C/C(=C/c1ccc[nH]1)C(=O)O | 1360 |
| COc1cc(C=C(C#N)C#N)cc([N+](=O)[O-])c1O | 160 |
| O=C(O)/C=C/c1ccc(O)c(O)c1 [CAFFEIC ACID] | 1200 |
| N#C/C=C/c1ccc(O)cc1 | 2400 |
| N#CC(C#N)=Cc1cc[n+]([O-])cc1 | 1300 |
| COc1cc(/C(C)=C(\C#N)C(=O)O)ccc1O | 1100 |
| CC(=C(C#N)C#N)c1ccc(NC(=O)CCC(=O)O)cc1 | 500 |
| COc1ccc(C=C(C#N)C#N)cc1O | > 250 |
| N#C/C(=C/c1cc(O)ccc1O)C(=O)O | 75 |

| Structure (SMILES) | IC50 [µM] |
| --- | --- |
| N#CC(C#N)=Cc1cccc(O)c1 | 375 |
| N#CC(C#N)=Cc1ccc(C=O)cc1 | 60 |
| O=C(O)/C=C/c1ccc(O)cc1 [COUMARIC ACID] | 3000 |
| N#C/C(=C\c1ccccc1)C(=O)O | > 2500 |
| COc1ccc(NN=C(C#N)C#N)cc1 | 600 |
| N#CC(C#N)=C(N)/C(C#N)=C/c1ccc(O)cc1 | 0.125 |
| N#C/C(=C\c1ccc(O)cc1)C(N)=O | 800 |
| N#C/C(=C\c1ccc(O)cc1)C(=O)O [alpha-CYANO-4-HYDROXYCINNAMIC ACID] | 308 |
| COc1cc(C=C(C#N)C#N)cc(Br)c1O | 153 |
| N#C/C(=C\c1ccc([N+](=O)[O-])cc1)C(=O)O | 1300 |
| N#CC(C#N)=Cc1ccc(N2CCOCC2)cc1 | > 625 |
| CCCCc1cc(/C=C(\C#N)C(N)=O)cc(CCCC)c1O | 55 |
| COc1cc(/C=C(\C#N)C(=O)O)ccc1O | 800 |
| N#CC(C#N)=Cc1ccc(NC(=O)CCC(=O)O)cc1 | 640 |
| N#C/C(=C\c1ccc(C=O)cc1)C(=O)O | 140 |
| N#CC(C#N)=C(N)/C(C#N)=C/c1cc(O)c(O)c(O)c1 [TYRPHOSTIN 51] | 0.8 |
| COc1cc(C=C(C#N)C#N)ccc1O | 200 |
| N#C/C(=C\c1ccc(F)cc1)C(=O)O | 2500 |
| N#CC(C#N)=Cc1ccc(C(=O)O)cc1 | 430 |

Target: T1, Epidermal growth factor receptor
Assay: as §1

| Structure (SMILES) | IC50 [µM] |
| --- | --- |
| N#C/C(=C\c1ccc(O)c(O)c1)C(=O)O | 70 |
| Cc1ccc(/C=C(\C#N)C(=O)O)cc1 | 1350 |
| COc1cc(/C=C(\C#N)C(=O)O)cc(OC)c1O | 700 |
| COc1ccc(/C=C(\C#N)C(=O)O)cc1 | 2500 |
| CN(C)c1ccc(/C=C(\C#N)C(=O)O)cc1 | 1400 |
| N#C/C(=C\c1ccccc1)C(=O)O | > 2500 |
| N#C/C(=C\c1ccc(O)cc1)C(=O)O [alpha-CYANO-4-HYDROXYCINNAMIC ACID] | 308 |
| COc1cc(/C=C(\C#N)C(=O)O)ccc1O | 800 |
| N#C/C(=C\c1ccc(C=O)cc1)C(=O)O | 140 |
| N#C/C(=C\c1ccc(F)cc1)C(=O)O | 2500 |
